Tested on: implanted tumors
Experiment: Comparison of anti-tumor activity of ScFv-7 with tamoxifen on tumor-bearing nude mice
Format: in vivo, BALB/c-nu female nude mice
Details: after 18 days of drug administration
Method: BALB/c-nu female nude mice were divided into 3 groups, with 7 mice in each group.
Human anti-ERα36 ScFv-7 was administered at the dose of 0.1 mg/20 g body weight/day. The positive control tamoxifen was administered at the dose of 0.33 mg/20 g body weight/day. The negative control group was administered with human IgG.
The tumor-bearing nude mice were weighed, and the volumes of the implanted tumors were measured every 3-4 days. The relative tumor volumes and tumor growth inhibition rates were calculated using Equation 2 and Equation 4 respectively. Animals received drug administration for 18 days and were terminated 24 h later. The tumors were excised from the animals and weighed. The average tumor weights and tumor growth inhibitions were calculated using Equation 4.

SMILES: CC/C(=C(\c1ccccc1)c1ccc(OCCN(C)C)cc1)c1ccccc1 [tamoxifen, reference compound]
- tumor inhibition rates (ScFv-7 0.1 mg/20 g body weight/day, tamoxifen 0.33 mg/20 g body weight/day): around 60%
- average tumor weights compared with negative group (p-values below 0.01): significant difference

Source: patent US20110311517A1, “Antibodies and methods for treating estrogen receptor-associated diseases” (SHENOGEN PHARMA GROUP, LTD., priority 2009, published 2011)
